Source: patent publication EP0726257A1, “1-(Hetero)Arylvinyl-5H-2,3-benzodiazepine derivatives useful for the treatment of central nervous system disorders, and benzopyrylium intermediates for their preparation” (EGIS GYOGYSZERGYAR RT., priority 1995, dated 1996)
Read-outs that look alike come from different tables or passages of the source.

Experiments:
[1] = molecular target: homophthalazine binding site; experiment: Displacement of 3H-girisopam from the homophthalazine binding site in rat brain striatal membrane preparation; settings: displacing 5 nM 3H-girisopam
Method: Ki values were calculated according to the following equation: Ki = IC50 :(1 +([L])/(KD)), [formula] wherein KD is the dissociation constant of the labelled ligand-receptor complex, [L] is the concentration of the labelled ligand and IC50 is the half maximal inhibitory concentration of the test compound.

Catalepsy in mice = experiment: Cataleptic effect in mice (Schlichtegroll); format: in vivo; settings: p.o.
Method: (§1) The cataleptic effect of the compounds was measured both in mice (Schlichtegroll: Arzneim. Forsch., 8, 489, [1958]) and in rats (Morpurgo: Arch. Int. Pharmacodyn., 137, 87, [1962]).

Catalepsy in rats = experiment: Cataleptic effect in rats (Morpurgo); format: in vivo; settings: p.o.
Method: as §1

[2] = test system: spontaneous motor activity of mice; experiment: Inhibition of spontaneous motor activity according to Borsy et al.; format: in vivo; settings: Mus musculus, po, 0.5 h
Method: The potential antipsychotic activity of 1-[2'-(substituted) vinyl]-5H-2,3-benzodiazepine derivatives according to the invention and of reference substances was tested according to the method of Puech et al. (Psychopharmacology, 75, 84, [1981] by measuring their inhibiting effect on the "climbing" reaction induced by 5,6,6a,7-tetra-(hydro)-6-(methyl)-4H-dibenzo[de,g]quinoline-10,11-di-(ol){apomorphine}. The results have been expressed as ED50 values. Since the inhibition of the spontaneous motor activity (SMA) is an important characteristic of the antipsychotic drugs, the ED50 values of a number of compounds were determined according to the method of Borsy et al. (Arch. Int. Pharmacodyn., 124, 1, 196).
The effect of the 1-[2'-(substituted) vinyl]-5H-2,3-benzodiazepine derivatives according to the invention on the spontaneous motor activity was tested according to the method of Borsy et al. Groups consisting of 3 mice were treated orally with different doses of the compounds to be tested. Then the animals were placed into a 10-channel Dews system equipment, wherein the number of interruptions of infrared beam within 30 minutes was counted. […]

[3] = test system: spontaneous motor activity (SMA) in mice; experiment: Behavioural effects according to Irwin (decrease in spontaneous motor activity); format: in vivo; set-up: key: ++ strong; + moderate; +- slight decrease in spon-taneous motor activity [SMA]
Method: (§2) The behavioural effects of 1-[2'-(substituted) vinyl]-5H-2,3-benzodiazepine derivatives according to the invention and of reference substances were measured according to the method of Irwin (Psychopharmacology, 13, 222 [1968]). The results and the acute toxicity data (dead/treated animals, shown in brackets) can be seen in the following Table II
(§3) From the above Table II it can be taken that the 1-[2'-(substituted) vinyl]-5H-2,3-benzodiazepine derivatives according to the invention considerably decrease the spontaneous motor activity (SMA) in mice after intraperitoneal or oral administration.

mice = experiment: Acute toxicity (dead/treated animals) in the Irwin test; format: in vivo
Method: as §2, §3

rats = experiment: Elevated plus-maze test (Pellow), anxiolytic activity; format: in vivo; settings: Rattus norvegicus, po, 1 h; p.o., elevated plus maze, Sprague Dawley rats, 60 minutes pretreatment, significant increase of time spent on open arms; read-out: Minimum effective dose
Description: The anxiolytic activity was studied in rats according to the "lick-conflict" test elaborated by Vogel et al. (Psychopharmacology, 21, 1, [1971] and the elevated plus-maze test described by Pellow (Pellow, J.: Neurosci. Meth. 14, 149, [1985]). The antiaggressive effect was investigated in mice using the "fighting behaviour" method of Tedeschi (J. Pharm. Exp. Ther., 125, 28, [1959]). The minimal effective dose (MED) values and the ED50 values obtained are shown in the following Table V.
The anxiolytic activity of these compounds was investigated in the elevated plus maze test. Male rats belonging to the Sprague Dawley strain and weighing 220 to 260 g were used as test animals. The test was carried out with the aid of a wooden plus-shaped maze elevated to a height of 50 cm and containing two enclosed and two open arms (50 cm long and 15 cm wide). After 60 minutes pretreatment the animals were placed into the maze and observed for 5 minutes. The drug effect was expressed as percent increase of the time spent on the open arms and number of open arm entries. The minimum effective dose (MED) which caused a significant increase of the time spent on the open arms was calculated for every substance [Pelow, S., Chopin, P., File, S.E., Briley, M.: J. Neurosci. Methods 14, 149 to 167 [1985]).

[4] = p.o., mice, interruptions of infrared beam within 30 minutes, read-out: ID50 (the source's name)

COc1cc2c(cc1OC)C(C=Cc1ccc(OC(C)C)cc1)=NN=C(C)C2 [Example 15] gave a Ki [1] of 13 nM.
In the case of COc1cc2c(cc1OC)C(C=Cc1ccc(F)cc1)=NN=C(C)C2 [Example 28], the Ki [1] is reported as 12 nM.
COc1cc2c(cc1OC)C(C=Cc1cccc(OC(C)C)c1)=NN=C(C)C2 [Example 16] showed a Ki [1] of 11 nM.
Work on COc1ccc(C=CC2=NN=C(C)Cc3cc(OC)c(OC)cc32)cc1 [Example 9] yielded a Ki [1] of 18 nM.
For COc1cc2c(cc1OC)C(C=Cc1ccccc1OC(C)C)=NN=C(C)C2 [Example 18], the Ki [1] was 18 nM.
In the case of COc1cc2c(cc1OC)C(C=Cc1ccc3c(c1OC)OCO3)=NN=C(C)C2 [Example 21], the Ki [1] is reported as 8 nM, the “Catalepsy in mice Minimal effective dose [MED]” value (Catalepsy in mice) is reported as over 100 mg/kg and the “Catalepsy in rats Minimal effective dose [MED]” value (Catalepsy in rats) is reported as over 100 mg/kg.
In the case of CC1=NN=C(C=Cc2ccc(C#N)cc2)c2cc3c(cc2C1)OCO3 [Example 88, 1-[4'-(Cyano)-styryl]-4-[methyl]-7,8-[methylenedioxy]-5H-2,3-benzodiazepine], the ED50 [2, 4] is reported as over 100 mg/kg.
In the case of CCC1C(C)=NN=C(C=Cc2ccc(OC)c(OC)c2)c2cc(OC)c(OC)cc21 (stereo not drawn) [Example 64], the Behaviour ([3]; 300 mg/kg i.p.) is reported as “+”, the Behaviour ([3]; 1000 mg/kg p.o.) is reported as “+-” and the “acute toxicity (dead/treated animals)” value (mice; 300 mg/kg i.p.) is reported as 0/5. For the same molecule, the “acute toxicity (dead/treated animals)” value (mice; 1000 mg/kg p.o.) was 0/5.
Molecule CN1C(=O)CN=C(c2ccccc2)c2cc(Cl)ccc21 [diazepam, 7-(chloro)-2,3-di-(hydro)-1-(methyl)-5-(phenyl)-1H-1,4-benzodiazepin-2-(one), reference compound] has an ED50 ([2]; read-out: ID50) of 23 mg/kg.
For COc1cc2c(cc1OC)C(C=Cc1ccc(Cl)c(NC(C)=O)c1)=NN=C(C)C2 [Example 85, 1-[3'-(Acetylamino)-4-(chloro)-styryl]-4-[methyl]-7,8-di-[methoxy]-5H-2,3-benzodiazepine], the Ki [1] was 14 nM, the Behaviour ([3]; 300 mg/kg i.p.) was “+-” and the Behaviour ([3]; 1000 mg/kg p.o.) was “+”. For the same molecule, the “acute toxicity (dead/treated animals)” value (mice; 300 mg/kg i.p.) was 0/5 and the “acute toxicity (dead/treated animals)” value (mice; 1000 mg/kg p.o.) was 0/5.
In the case of CC1=NN=C(C=Cc2ccc(C(F)(F)F)cc2)c2cc3c(cc2C1)OCO3 [Example 87, 1-[4'-(Trifluoromethyl)-styryl]-4-[methyl]-7,8-[methylenedioxy]-5H-2,3-benzodiazepine], the ED50 [2, 4] is reported as over 100 mg/kg and the minimal effective dose (rats) is reported as 0.1 mg/kg.
COc1cc2c(cc1OC)C(C=Cc1cccc(N)c1)=NN=C(C)C2 [Example 74] showed a Ki [1] of 14 nM.
For COc1cc2c(cc1OC)C(C=Cc1ccccc1Br)=NN=C(C)C2 [Example 36], the Ki [1] was 10 nM.
With COc1cc2c(cc1OC)C(C=Cc1ccccc1C)=NN=C(C)C2 [Example 42] the Ki [1] was 11 nM, the Behaviour ([3]; 300 mg/kg i.p.) was “+ +” and the Behaviour ([3]; 1000 mg/kg p.o.) was “+ +”. The “acute toxicity (dead/treated animals)” value (mice; 300 mg/kg i.p.) was 0/5 and the “acute toxicity (dead/treated animals)” value (mice; 1000 mg/kg p.o.) was 0/5.
CCN(CC)c1ccc(C=CC2=NN=C(C)Cc3cc(OC)c(OC)cc32)cc1 [Example 49] was tested, and the Ki [1] was 10 nM, the Behaviour ([3]; 300 mg/kg i.p.) was “+ +” and the Behaviour ([3]; 1000 mg/kg p.o.) was “+ +”. The “acute toxicity (dead/treated animals)” value (mice; 300 mg/kg i.p.) was 0/5 and the “acute toxicity (dead/treated animals)” value (mice; 1000 mg/kg p.o.) was 3/5.
In the case of COc1cc2c(cc1OC)C(C=Cc1ccc(C(F)(F)F)cc1)=NN=C(C)C2 [Example 45], the Ki [1] is reported as 15 nM.
Molecule CC1=NN=C(C=Cc2cccc(F)c2)c2cc3c(cc2C1)OCO3 [Example 89, 1-[3'-(Fluoro)-styryl]-4-[methyl]-7,8-[methylenedioxy]-5H-2,3-benzodiazepine] has a minimal effective dose (rats) of 0.3 mg/kg.
For CC1Cc2cc3c(cc2C(C=Cc2ccc(F)cc2)=NN1)OCO3 (stereo not drawn) [Example 92, 1-[4'-(Fluoro)-styryl]-4-[methyl]-7,8-[methylenedioxy]-3,4-di-[hydro]-5H-2,3-benzodiazepine], the minimal effective dose (rats) was 1 mg/kg.
